PubChem BioAssay (NCI)
“And” between values parts separate entries of the source, which are not always exact repeats. Equal entries are not always repeated.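 48-hour exposure; five concentrations; linearly interpolated endpoints. Abbreviation: GI50, concentration required for 50% inhibition of growth. TGI: total growth inhibition.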

Experiments:
Experiment in all cases: growth of human tumour cells (NCI), 48 h
MALME-3M melanoma = system: MALME-3M melanoma
A498 renal = system: A498 renal
SN12C renal = system: SN12C renal
KM12 colon = system: KM12 colon
K-562 leukemia = system: K-562 leukemia
NCI-H226 lung = system: NCI-H226 lung
IGROV1 ovarian = system: IGROV1 ovarian
UO-31 renal = system: UO-31 renal
HCC-2998 colon = system: HCC-2998 colon
OVCAR-5 ovarian = system: OVCAR-5 ovarian
NCI-H23 lung = system: NCI-H23 lung
SK-MEL-2 melanoma = system: SK-MEL-2 melanoma

| SMILES | TGI (MALME-3M melanoma) | TGI (A498 renal) | TGI (SN12C renal) | TGI (KM12 colon) | TGI (K-562 leukemia) | TGI (NCI-H226 lung) | TGI (IGROV1 ovarian) | TGI (UO-31 renal) | TGI (HCC-2998 colon) | TGI (OVCAR-5 ovarian) | TGI (NCI-H23 lung) | TGI (SK-MEL-2 melanoma) | GI50 (SN12C renal) | GI50 (KM12 colon) | GI50 (K-562 leukemia) | GI50 (IGROV1 ovarian) | GI50 (HCC-2998 colon) | GI50 (OVCAR-5 ovarian) | GI50 (SK-MEL-2 melanoma) | GI50 (NCI-H23 lung) |
| --- | --- | --- | --- | --- | --- | --- | --- | --- | --- | --- | --- | --- | --- | --- | --- | --- | --- | --- | --- | --- |
| Cc1ccc(-c2cc(-c3ccco3)c(C#N)c(=O)n2C2OC(CO)C(O)C(O)C2O)cc1 (configuration not stated) | 78.2 µM | 50.9 µM | > 100 µM | > 100 µM | > 100 µM | > 100 µM | > 100 µM | > 100 µM | > 100 µM | > 100 µM | > 100 µM |  |  |  |  |  |  |  |  |  |
| CCOC(=O)C(OP(=O)(OCC)OCC)C(F)(F)F (configuration not stated) | > 100 µM | > 100 µM | > 100 µM | > 100 µM | > 100 µM | > 100 µM |  | > 100 µM | > 100 µM | > 100 µM | > 100 µM | > 100 µM |  |  |  |  |  |  |  |  |
| Cn1c(=O)c(Cl)c(N=[N+]=[N-])c2ccccc21 | > 100 µM | > 100 µM | > 100 µM | > 100 µM | > 100 µM | > 100 µM | > 100 µM | > 100 µM | > 100 µM | > 100 µM | > 100 µM | > 100 µM |  |  |  |  |  |  |  |  |
| O=[N+]([O-])C(=C/c1cccs1)/C(=C\c1cccs1)[N+](=O)[O-] | 4.82 µM |  |  | 13.4 µM | > 100 µM | 9.84 µM |  |  | 2.58 µM | 7.21 µM | 3.52 µM | 6.46 µM |  |  |  |  |  |  |  |  |
| O=C1c2ccccc2C(=O)N1CC(CN1C(=O)c2ccccc2C1=O)(C(=O)OCc1ccccc1)C(=O)OCc1ccccc1 | > 100 µM | > 100 µM | > 100 µM | > 100 µM |  | > 100 µM | > 100 µM | > 100 µM | > 100 µM | > 100 µM | > 100 µM | > 100 µM |  |  |  |  |  |  |  |  |
| C=CCCCCCCCCC(=O)O | 302 µM | 1.06 µM | 339 µM | 107 µM | 426 µM | 394 µM | 287 µM | 162 µM | 202 µM | 351 µM | 274 µM | 152 µM |  |  |  |  |  |  |  |  |
| COc1cccc2c1C(=O)c1c(O)c3c(c(O)c1C2=O)C[C@@](O)(C(=O)CO)CC3OC1CC(NCCCC(OC(C)=O)OC(C)=O)C(O)C(C)O1 (some centres not stated) | 0.00452 µM | 0.00609 µM | > 1 µM | 0.000187 µM | 0.000729 µM | 0.00579 µM | > 1 µM | 0.00427 µM | 0.00593 µM and 0.00191 µM | 0.701 µM |  |  | < 0.0001 µM | < 0.0001 µM | < 0.0001 µM | 0.000754 µM | 0.000324 µM | 0.000347 µM | < 0.0001 µM | < 0.0001 µM |
| CCN1CCC(O)(c2ccc(O)cc2)C(C(=O)c2ccc(O)cc2)C1 (configuration not stated) | 38.8 µM |  | 42 µM | 45.4 µM | 33.8 µM | 61.9 µM | 44 µM | 36 µM |  | 35.6 µM | 44.4 µM |  |  |  |  |  |  |  |  |  |
